Results on 1 molecule are retold here after ChEMBL document CHEMBL6177952, “Exploring chloro-isoxazole compounds inspired on tetrahydrofuran neolignans as promising antileishmanial agents” (Eur J Med Chem, 2025).

For data set [1], the system named is Leishmania amazonensis. Description: Antileishmanial activity against leishmania amazonensis infected in BALB/c mouse assessed as reduction in lesion size at 5 mg/kg, ILES measured at 6 to 9 week post infection. Format: functional, organism-based. The settings on record: time 6-9 weeks.
For data set [2], the system named is Leishmania amazonensis. Nature of the data set: Antileishmanial activity against leishmania amazonensis infected in BALB/c mouse assessed as reduction in parasite load in footpad tissue at 5 mg/kg, ILES measured after 65 days post infection by limiting dilution assay. Format: functional, organism-based. The conditions noted are these: time 65.0 day.
In a further data set the test system is Mitochondrial membrane. Description: Induction of mitochondrial membrane potential in Leishmania amazonensis promastigotes at 38.1 uM measured at 72 hrs by flow cytometry analysis. Format: cell membranes. A general note: In flow cytometry, cells or beads pass a laser one at a time.
A short description of data set [3]: Mutagenicity in Salmonella typhimurium TA98 assessed as number of revertant colonies per plate at 150 microg/ml by Ames test. In kind it is toxicity. The conditions noted are these: salmonella enterica subsp. enterica serovar typhimurium; dose 150 µg/ml.
Data set [4] is described as follows: Mutagenicity in Salmonella typhimurium TA100 assessed as number of revertant colonies per plate at 50 microg/ml by Ames test. Format: toxicity. The conditions noted are these: salmonella enterica subsp. enterica serovar typhimurium; dose 50 µg/ml.
A short description of data set [5]: Mutagenicity in Salmonella typhimurium TA100 assessed as number of revertant colonies per plate at 1500 microg/ml by Ames test. In kind it is toxicity. The settings on record: salmonella enterica subsp. enterica serovar typhimurium; dose 1500 µg/ml.
Data set [6] in a line: Mutagenicity in Salmonella typhimurium TA102 assessed as number of revertant colonies per plate at 50 microg/ml in presence of S9 fraction by Ames test. Format: toxicity, subcellular. The conditions noted are these: salmonella enterica subsp. enterica serovar typhimurium, dose 50 µg/ml.
Data set [7] can be described thus: Mutagenicity in Salmonella typhimurium TA102 assessed as number of revertant colonies per plate at 150 microg/ml in presence of S9 fraction by Ames test. Format: toxicity, subcellular. The conditions noted are these: salmonella enterica subsp. enterica serovar typhimurium, dose 150 µg/ml. (In general: The Ames test uses bacterial strains that need an amino acid and regain growth without it when mutated back.)

The nature of data set [8]: Mutagenicity in Salmonella typhimurium TA102 assessed as number of revertant colonies per plate at 5000 microg/ml in presence of S9 fraction by Ames test. Format: toxicity, subcellular. The settings on record: salmonella enterica subsp. enterica serovar typhimurium, dose 5000 µg/ml.
The test system of data set [9] is Leishmania amazonensis. Description: Antileishmanial activity against Leishmania amazonensis promastigotes assessed as early apoptotic parasites at 38.1 uM incubated for 24 hrs by Annexin V/7-AAD staining based flow cytometry analysis relative to control. In kind it is functional.
For data set [10], the system named is Leishmania amazonensis. Description: Antileishmanial activity against Leishmania amazonensis promastigotes assessed as viable apoptotic parasites at 38.1 uM incubated for 48 hrs by Annexin V/7-AAD staining based flow cytometry analysis relative to control. Format: functional.
In data set [11] the test system is Leishmania amazonensis. Description: Antileishmanial activity against Leishmania amazonensis promastigotes assessed as viable apoptotic parasites at 38.1 uM incubated for 72 hrs by Annexin V/7-AAD staining based flow cytometry analysis relative to control. Format: functional.

Active and inactive are the calls of the source. The calls are words filed in the database; no cut-off is given here.

Take `COc1cc(-c2cc(-c3ccc4c(c3)OCO4)on2)c(Cl)c(OC)c1OC`: the outcome in the data set with Leishmania amazonensis [1], in the data set with Leishmania amazonensis [2] and with Mitochondrial membrane was Active. For the same molecule, the revertant count in data set [3] was 9.7 revertants/plate; in data set [4], 103 revertants/plate; in data set [8] it was 100 revertants/plate. The Activity was 116 revertants/plate in data set [5]; 204 revertants/plate in data set [6]; 187 revertants/plate in data set [7]; 0.8% in the data set with Leishmania amazonensis [9]; 95.2% with Leishmania amazonensis [10]; 93.2% in the data set on Leishmania amazonensis [11].
